“And” between values parts separate entries of the source, which are not always exact repeats. Identical values can stand only once.
Assays:
[1] = system: Organotypic hippocampal slice cultures (CA1 cell layer); test: Hypoxic neuronal damage in organotypic hippocampal slice cultures (PI fluorescence in CA1); type: cell-based, Wistar rat; conditions: for effect on hypoxic damage in CA1 (in words): pre-
Procedure: Protocol For Studying Hypoxic Neuronal Damage
Organotypic hippocampal slice cultures were prepared using the basic method of Pringle et al (1996, 1997) modified as follows:
Wistar rat pups (8-11 days old) were decapitated and the hippocampus rapidly dissected into ice-cold Gey's balanced salt solution supplemented with 4.5 mg/ml glucose. Slices were separated and plated onto Millicell CM culture inserts (4 per well) and maintained at 37° C./5% CO2 for 14 days. Maintenance medium consisted of 25% heat-inactivated horse serum, 25% Hank's balanced salt solution (HBSS) and 50% minimum essential medium with added Earle's salts (MEM) supplemented with 1 mM glutamine and 4.5 mg/ml glucose. Medium was changed every 3-4 days.
Experimental hypoxia was performed as described previously (Pringle et al., 1996; 1997). Briefly, cultures were transferred to serum free medium (SFM-75% MEM, 25% HBSS supplemented with 1 mM glutamine and 4.5 mg/ml glucose) containing 5 μg/ml of the fluorescent exclusion dye propidium iodide (PI). Cultures were allowed to equilibrate in SFM for 60 minutes prior to imaging. PI fluorescence was detected using a Leica inverted microscope fitted with a rhodamine filter set. Any cultures in which PI fluorescence was detected at this stage were excluded from further study. Hypoxia was induced by transferring cultures to SFM (+PI) which had been saturated with 95% N2/5% CO2. Culture plates (without lids) were then sealed into an airtight chamber in which the atmosphere was saturated with 95% N2/5% CO2 by continuously blowing through gas at 10 liters/minute for ten minutes before being sealed and placed in the incubator for 170 minutes (total time of hypoxia was therefore 180 minutes). At the end of the hypoxic period cultures were returned to normoxic SFM containing PI and placed back in the incubator for 24 hours.
Neuronal damage was assessed as described previously (Pringle et al., 1996; 1997) using either NIH Image 1.60 running on an Apple IIsi computer or OpenLab 2.1 (Improvision) running on a Macintosh G4/400. Images were captured using a monochrome camera and saved onto optical disk for offline analysis. Light transmission images were captured prior to the addition of drugs, and PI fluorescence images recorded at the end of the 24-hour post-hypoxia recovery period. The area of the CA1 cell layer was determined from the transmission image. The area of PI fluorescence in CA1 was measured using the density slice function within NIH Image or OpenLab, and neuronal damage expressed as the percentage of the CA1 in which PI fluorescence was detected above background.
Steroid compounds were prepared by making an initial 1 mg/ml solution in ethanol and further diluting down in SFM. Compounds were added to the cultures for 45 minutes prior to hypoxia, during the hypoxic episode and during the post-hypoxic recovery period. Control experiments consisted of cultures treated with vehicle alone.

[2] = system: hippocampal CA1 pyramidal cells; test: Global cerebral ischaemia in rats, 4 vessel occlusion (intact CA1 neurons, Nissl staining); type: in vivo, male Wistar rats
Procedure: Cerebral ischaemia was induced by four-vessel-occlusion (4VO) in male Wistar rats (250-280 g). Both vertebral arteries were occluded by electrocauterization in pentobarbital anaesthesia (60 mg/kg i.p.). The animals were allowed to recover for 24 hours with free access to water but not food. The next day the carotid arteries were exposed under 2% halothane in 30% oxygen/70% nitrous oxide anaesthesia and were occluded for 10 minutes using microvascular clamps. Subsequently, both clamps were removed and both arteries were inspected for immediate reperfusion. During the operation and the following 3 hours normothermia of the animals (37.5±0.5° C.) was maintained by using a thermostatically controlled heating blanket connected to a rectal thermometer. For control, in sham-operated animals both vertebral arteries were cauterised in pentobarbital anaesthesia and both common carotid arteries were exposed but not clamped under 2% halothane in 30% oxygen/70% nitrous oxide anaesthesia the following day. The wound was treated with lidocaine gel and then sutured. The animals were kept under a heating lamp at 30° C. environmental temperature until they regained consciousness.
Seven groups of animals were investigated: • 1. (n=8) steroid compound, 7β-OH EPIA (0.1 mg/kg, i.v. via tail vein, three injections: 15 minutes prior to the induction of ischaemia, during ischaemia and 5 minutes after reperfusion); • 2. (n=8) steroid compound, 7β-OH EPIA (0.3 mg/kg, i.v. three injections as described in 1.); • 3. (n=8) steroid compound, 7β-OH EPIA (1 mg/kg, i.v., three injections as described in 1.); • 4. (n=8) NBQX (disodium salt, because more water soluble) as reference substance and positive control (TOCRIS, Germany, 30 mg/kg, i.p., three injections as described in 1.); • 5. (n=8) received vehicle (0.9% NaCl, containing 100 μl Ethanol) three injections as described in 1.); • 6. (n=8) ischaemia alone; • 7. (n=8) sham operated controls.
The substances were dissolved in 100 μl ethanol and finally diluted with 0.9% NaCl.
After a survival time of 7 days after ischaemia, all animals were perfusion fixed tanscardially with 4% paraformaldehyde. The brains were then removed carefully and postfixed in the same fixative for 2 hours. After cryoprotection in 30% sucrose, the brains were rapidly frozen in isopentane and stored at −80° C. Twenty-micrometer cryostat sections comprising the hippocampal formation were Nissl stained with toluidine blue or NeuroTrace fluorescence.
The severity of neuronal damage in the hippocampal CA1 region after ischaemia was evaluated by the number of surviving neurons using Nissl staining. The mean number of morphologically intact neurons per 400 μm length was calculated in CA1 region for each group. Cell counting was performed in 3-5 serial sections per animal and 6 times 400 μm CA1 area per section using a light microscope equipped with a 20× objective. The data were statistically analysed by paired Student's t-test. Data were presented as mean±SEM.
Morphological intact hippocampal CA1 neurons were characterised by Nissl staining (toluidine blue and NeuroTrace) with the following criteria: clear shape of a neuronal perikarya, large nucleus with a positive labelled nucleolus, a small cytoplasm zone around the nucleus with positive Nissl staining, indicating the intact rough endoplasmic reticulum with ribosomes and therefore the intact protein synthesis machinery.

[3] = system: Langendorf perfused male rat hearts; test: Cardioprotective effect in Langendorf perfused rat hearts (regional ischaemia/reperfusion, infarct size); set-up: species or system Wistar rats; conditions: 100 nM in perfusate, 30 min regional ischaemia, 120 min reperfusion
Procedure: The study was designed to test the potential anti-ischaemic and cardioprotective effect of 7β-OH EPIA in Langendorf perfused male rat hearts. The end point for evaluation of protection in this model is infarct size (protection against lethal injury, cell death). The infarct size model used is based on a standardised ischaemic insult followed by reperfusion. In the current study, treatment was added ex vivo (to the perfusion solution of the isolated heart) for 30 minutes prior to infarction and continued through 30 minutes regional ischaemia (infarction) and 120 minutes of reperfusion. Based on results from pilot studies, a concentration of 100 nM was used and compared to vehicle treated hearts. The drug was dissolved in DMSO (vehicle) and the final concentration of DMSO in the perfusion solution was 1:10^−6.
Animals were housed in the animal department of the University of Tromsø and treated according to the guidelines formulated by the European Convention for the protection of vertebrate animals used for experimental or other purposes. Supply of Wistar rats were from Harland (The Netherlands), and the rats stayed in the animal department for one week before experiments were started. Animal weight was restricted to 240-380 g, and only male hearts were used. This corresponds to age 60-120 days. […]
The perfusion pressure was 100 mm H2O. […] Heart rate was calculated from pressure recordings. […]

[4] = Experiment 1, 100 nM, during and post-hypoxia
[5] = Experiment 1, 100 nM, present pre-, during and post-hypoxia, control hypoxia 25.5 ± 6.4
[6] = 30 mg/kg, three injections, 10 min global ischaemia, 7 days survival

C[C@]12CC[C@H](O)CC1=C[C@H](O)[C@@H]1[C@@H]2CC[C@]2(C)C(=O)CC[C@@H]12 [7βOH-DHEA, 7β-hydroxy-DHEA]
effect on neuronal damage (in words) ([1]; Experiment 3, 100 nM pre-, during and post-hypoxia): a large, highly significant, reduction in neuronal damage
% Damage in CA1 ([1]; Experiment 3, 100 nM pre-, during and post-hypoxia, control hypoxia 29.0 ± 6.2): 4.1 ± 1.9 %

C[C@]12CC[C@H](O)C[C@@H]1C[C@H](O)[C@@H]1[C@@H]2CC[C@]2(C)C(=O)CC[C@@H]12 [7βOH-EPIA, 7β-hydroxyepiandrosterone]
neuroprotective effect, t-test analysis (in words) ([2]; 0.1 mg/kg (p=0.01) and 0.3 mg/kg (p=0.0008)): highly significant neuroprotective effect
neuroprotective effect on CA1 pyramidal cells compared to the sham operated group ([2]; 0.1 mg/kg i.v., three injections, 10 min global ischaemia, 7 days survival): 74.8%
neuroprotective effect on CA1 pyramidal cells compared to the sham operated group ([2]; 0.3 mg/kg i.v., three injections, 10 min global ischaemia, 7 days survival): 83.9%
neuroprotection of CA1 pyramidal cells (in words) ([2]; 1.0 mg/kg i.v., three injections): only a tendency to neuroprotection, but the effect was not significant
behavioural abnormalities of the animals ([2]; injected i.v. prior, during and after ischaemia): never observed any behavioural abnormalities
Infarct volume ([3]; control 38.9): 14.1
Infarct/risk zone (%) ([3]; control 46.3): 14.4+/−1.22% and 14.4%
effect on hypoxic damage in CA1 (in words) [1, 4]: significantly reduced
% Damage in CA1 [1, 5]: 9.0 ± 4.7 %
neuroprotection against hypoxia (in words) ([1]; Experiment 2, 1 nM): activity was lost
% Damage in CA1 ([1]; Experiment 2, 1 nM, control hypoxia 31.9 ± 4.7): 20.6 ± 7.2%
neuroprotection against hypoxia (in words) ([1]; Experiment 2, 10 nM and 100 nM): significantly neuroprotective
% Damage in CA1 ([1]; Experiment 2, 10 nM, control hypoxia 31.9 ± 4.7): 11.9 ± 4.7 %
% Damage in CA1 ([1]; Experiment 2, 100 nM, control hypoxia 31.9 ± 4.7): 14.3 ± 5.0 %

C[C@]12CC[C@H](O)C[C@@H]1C[C@@H](O)[C@@H]1[C@@H]2CC[C@]2(C)C(=O)CC[C@@H]12 [7αOH-EPIA, 7α-Hydroxy-EPIA]
effect on hypoxic damage in CA1 (in words) [1, 4]: significantly reduced
% Damage in CA1 [1, 5]: 4.0 ± 2.9 %

NS(=O)(=O)c1cccc2c1c([N+](=O)[O-])cc1nc(O)c(O)nc12 [NBQX, 2,3-dihydroxy-6-nitro-7-sulfamoyl-benzo(F)quinoxaline, reference compound]
neuroprotection in CA1 pyramidal cells compared to the ischaemia group (in words) ([2]; 30 mg/kg, three injections): significant (p=0.03) neuroprotection
neuroprotection compared to the ischaemia alone [2, 6]: 47.5%
protective effect compared to the sham operated animals [2, 6]: 68.5%

From patent US8148355B2, “Phophylactic and therapeutic use of hydroxysteroids” (Hunter-Fleming Limited, priority 2001, dated 2012)
